Here are results for 12 molecules from US6359133B2, “Halogen pyrimidinyl aryl (thio) ethers as pesticides” (Bayer Aktiengesellschaft, priority 1996, dated 2002).

Series [1] deals with Pyriculaia oryzae. It counts as in vivo. To be noted: rice, protective, 750 g/ha, evaluation 4 days after inoculation, vs untreated control.
In series [2] the test system is Erysiphe graminis f.sp. hordei. Briefly: Erysiphe test (barley)/protective. It counts as in vivo. Particulars: protective, 250 g/ha, evaluation 7 days after inoculation, vs untreated control. On the procedure:
Erysiphe Test (barley)/Protective Solvent: 10 parts by weight of N-methyl-pyrrolidone. Emulsifier: 0.6 part by weight of alkylaryl polyglycol ether. To produce a suitable preparation of active compound, 1 part by weight of active compound is mixed with the stated amounts of solvent and emulsifier, and the concentrate is diluted with water to the desired concentration. To test for protective activity, young plants are sprayed with the preparation of active compound at the stated application rate. After the spray coating has dried on, the plants are dusted with spores of Erysiphe graminis f.sp. hordei.

A short description of series [3]: physchem.
Series [4] is described as follows: logP determination by HPLC (EEC Directive 79/831 Annex V. A8). To be noted: gradient method, acetonitrile/0.1% aqueous phosphoric acid.

SMILES strings stand for the structures.

Molecule `CCC(=O)Oc1ccccc1Oc1ncnc(Oc2ccccc2C(=NOC)C(=O)NC)c1F` [Example 9] displayed an efficacy in series [1] of 80%. Regarding `CON=C(C(N)=O)c1ccccc1Oc1ncnc(Oc2ccccc2Cl)c1F` [Example 10], the efficacy in series [1] amounted to 80%. `CNC(=O)C(=NOC)c1ccccc1Oc1ncnc(Oc2ccccc2C#N)c1F` [Example 4] registered an efficacy in series [1] of 80%. As for `CNC(=O)/C(=N/OC)c1ccccc1Oc1ncnc(Oc2ccccc2C)c1F` [Example 2, 2-[2-(5-fluoro-6-o-tolyloxy-pyrimidin-4-yloxy)-phenyl]-2-methoxyimino-N-methyl-acetamide], the efficacy in series [1] amounted to 80%; in series [2] it was 100%. Also, the chromatographic logP in series [3] turned out to be 3.04.

With `CNC(=O)C(=NOC)c1ccccc1Oc1ncnc(Oc2cccc(Cl)c2C)c1F` [Example 24], the efficacy in series [1] was 80%. Turning to `CO/N=C(/C(N)=O)c1ccccc1O` [Example II-1, 2-(2-hydroxy-phenyl)-2-methoxyimino-acetamide], the chromatographic logP in series [3] is 0.83. Regarding `CNC(=O)/C(=N/OC)c1ccccc1Oc1ncnc(Oc2ccccc2Cl)c1F` [Example 1, 2-{2-[6-(2-chlorophenoxy)-5-fluoro-pyrimidine4-yloxy]-phenyl}-2-methoxyimino-N-methylacetamide], the efficacy in series [1] is 80%.

Regarding `C=CCOc1ccccc1Oc1ncnc(Oc2ccccc2C(=NOC)C(=O)NC)c1F` [Example 8], the values for the efficacy in series [1] and in series [2] were 80% and 100%, respectively.

`CNC(=O)C(=NOC)c1ccccc1Oc1ncnc(Oc2ccc(Cl)cc2Cl)c1F` [Example 15] registered a logP in series [4] of 3.61. `CNC(=O)C(=NOC)c1ccccc1Oc1ncnc(Oc2c(C)cccc2C)c1F` [Example 21] displayed an efficacy in series [1] of 80%. In series [1], `CNC(=O)C(=NOC)c1ccccc1Oc1ncnc(Oc2cc(C)ccc2C)c1F` [Example 20] registered an efficacy of 80%. For `CNC(=O)C(=NOC)c1ccccc1Oc1ncnc(Oc2ccc(C)cc2Cl)c1F` [Example 22], the efficacy in series [1] is on record as 80%.
